In paper PMC9866339, “In Silico and In Vitro Study of Janus Kinases Inhibitors from Naphthoquinones” (Molecules, 2023):
Like-named read-outs stand apart in the source and are kept apart here. Blank lines part the entries; values can stand above or below the compound they belong to.

Key:
TF1 cells [1] = test: Presto Blue cytotoxicity assay on TF1 cells; type: cell-based, human; settings: for Cytotoxicity screening on TF1 cells: 10 μM, Presto Blue assay, result in words; for IC50: Homo sapiens, TF-1, 72 h, read-out: IC50 against TF1 cell viability
HEL cells = test: Presto Blue cytotoxicity assay on HEL cells; type: cell-based, human; settings: for Cytotoxicity screening on HEL cells: 10 μM, result in words; for IC50: Homo sapiens, HEL, 72 h, read-out: IC50 against HEL cell viability
HEL cell = settings: read-out: IC50 HEL cell growth; cited from earlier work
JAK2 = biological target: T1, JAK2 (Homo sapiens, UniProt O60674); test: ADP-Glo kinase assay, JAK2; type: biochemical; settings: 5 μM ATP, read-out: IC50 ± SEM JAK2
T1 construct: purchased Sigma-Aldrich SRP0171

TF1 cells [2] = settings: at IC50, 72 h, dot plot quadrant
JAK3 = biological target: T2, JAK3 (Homo sapiens, UniProt P52333); test: ADP-Glo kinase assay, JAK3; type: biochemical; settings: 5 μM ATP, read-out: IC50 ± SEM JAK3
T2 construct: purchased Sigma-Aldrich SRP0173

TF1 cells [3] = settings: at IC50, 72 h, dot plot quadrant; remark: listed apart in the source
JAK1 = settings: read-out: IC50 JAK1; cited from earlier work
human keratinocytes = tested on: human keratinocytes; design: method as in PMID 28250347, PMID 22845014; settings: result in words; cited from earlier work

T2 sequence (P52333 781-1124 limits assumed): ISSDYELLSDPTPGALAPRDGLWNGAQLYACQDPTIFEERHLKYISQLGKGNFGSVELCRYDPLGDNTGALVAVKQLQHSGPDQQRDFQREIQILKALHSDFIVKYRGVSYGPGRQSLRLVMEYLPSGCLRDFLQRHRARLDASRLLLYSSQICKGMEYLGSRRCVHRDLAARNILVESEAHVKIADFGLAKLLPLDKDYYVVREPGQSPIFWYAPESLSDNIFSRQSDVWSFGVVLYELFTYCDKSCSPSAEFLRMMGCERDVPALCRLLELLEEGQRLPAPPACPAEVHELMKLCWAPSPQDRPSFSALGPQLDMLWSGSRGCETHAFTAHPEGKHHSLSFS
T1 sequence (O60674 808-1132 limits assumed): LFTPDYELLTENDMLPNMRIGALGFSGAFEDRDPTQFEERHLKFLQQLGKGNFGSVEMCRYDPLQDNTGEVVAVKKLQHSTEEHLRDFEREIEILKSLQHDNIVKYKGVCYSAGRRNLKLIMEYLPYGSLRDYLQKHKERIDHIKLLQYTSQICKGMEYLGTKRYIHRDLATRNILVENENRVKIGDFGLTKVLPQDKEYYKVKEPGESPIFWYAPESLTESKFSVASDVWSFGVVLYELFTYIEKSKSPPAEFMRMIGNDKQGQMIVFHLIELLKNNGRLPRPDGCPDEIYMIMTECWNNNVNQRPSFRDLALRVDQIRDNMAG

SMILES: O=C1C=C(O)C(=O)c2ccccc21 [Lawsone, 2-hydroxy-1,4-naphthoquinone]
Cytotoxicity screening on TF1 cells (TF1 cells [1]): inhibited the growth of both cell types poorly
Cytotoxicity screening on HEL cells (HEL cells; Presto Blue assay): inhibited the growth of both cell types poorly

SMILES: N#Cc1ccc(C2C3=C(CCCC3=O)OC3=C2C(=O)c2ccccc2C3=O)cc1 (stereo not shown) [CM363]
IC50 (HEL cell): 1300 nM

IC50 (JAK2): 12.6 ± 2.12 nM
IC50 (JAK3): 14.8 ± 2.37 nM
SMILES: CC(=O)c1cc2c(o1)C(=O)c1ccccc1C2=O [Napabucasin, napabucasin]
Cytotoxicity screening on TF1 cells (TF1 cells [1]): highly potent cell growth inhibition
IC50 (TF1 cells [1]): 9.57 µM
Apoptotic cells, caspase 3/7 (TF1 cells [2]): 25.85%
Apoptotic/Dead cells, caspase 3/7 (TF1 cells [2]): 18.10%
Dead cells, caspase 3/7 (TF1 cells [2]): 0.30%
Live cells, caspase 3/7 (TF1 cells [2]): 55.75%
Dead cells, annexin V (TF1 cells [3]): 3.50%
Early Apop. cells, annexin V (TF1 cells [3]): 29.80%
Late Apop./Dead cells, annexin V (TF1 cells [3]): 39.24%
Cytotoxicity screening on HEL cells (HEL cells; Presto Blue assay): highly potent cell growth inhibition
IC50 (HEL cells): 3.31 µM

SMILES: CC1=CC(=O)c2ccccc2C1=O [Menadione, menadione]
Cytotoxicity screening on HEL cells (HEL cells; Presto Blue assay): high cytotoxicity
IC50 (HEL cells; Presto Blue assay, mean ± SEM): 7.99 ± 1.22 µM

SMILES: N#CC[C@H](C1CCCC1)n1cc(-c2ncnc3[nH]ccc23)cn1 [Ruxolitinib, ruxolitinib, reference compound]
IC50 (TF1 cells [1]): 12.2 ± 0.58 µM
IC50 (HEL cells): 26.04 ± 0.26 µM

IC50 (JAK2): 11.1 ± 0.13 nM
IC50 (JAK3): 10.2 ± 0.66 nM
SMILES: CCC(=O)c1cc2c(o1)C(=O)c1ccccc1C2=O [2′-methyl napabucasin]
Cytotoxicity screening on TF1 cells (TF1 cells [1]): highly potent cell growth inhibition
IC50 (TF1 cells [1]): 18.1 µM
Cytotoxicity against human keratinocytes (human keratinocytes): potent cytotoxicity
Apoptotic cells, caspase 3/7 (TF1 cells [2]): 13.50%
Apoptotic/Dead cells, caspase 3/7 (TF1 cells [2]): 22.35%
Dead cells, caspase 3/7 (TF1 cells [2]): 0.70%
Live cells, caspase 3/7 (TF1 cells [2]): 63.45%
Dead cells, annexin V (TF1 cells [3]): 1.10%
Early Apop. cells, annexin V (TF1 cells [3]): 25.42%
Late Apop./Dead cells, annexin V (TF1 cells [3]): 51.16%
Live cells, annexin V (TF1 cells [3]): 22.32%
Cytotoxicity screening on HEL cells (HEL cells; Presto Blue assay): highly potent cell growth inhibition
IC50 (HEL cells): 6.65 µM

SMILES: O=C1C=CC(=O)c2c(O)cccc21 [Juglone, juglone]
IC50 (HEL cells; Presto Blue assay, mean ± SEM): 8.67 ± 0.17 µM
